Columns and labels:
agricultural soils = experiment: In soil nitrification inhibition assay; conditions: soil; for inhibition at 50 µM: 50 µM of each compound; for inhibition at 100 µM: 100 µM of each compound
Procedure: Top layer (0 to 10 cm) soil samples were collected from different fields in Belgium (Merelbeke, Sint-Laureins and Moorslede). Vegetation was removed and samples were taken from different plots. All soil samples were mixed and sieved (mesh size 2.8 mm) to filter large debris and homogenize soil. The soil was stored at 5° C. in plastic containers covered with Saran foil to prevent changes in microbial community composition and to maintain the original soil water content.
Soil water content was determined by drying 20 g soil for ≥ 48 h in a 60° C. oven and measuring weight before and after drying. Based on the soil water content (± 20%), compound solutions were prepared so that addition of 200 µl compound and 200 µl NH4Cl solution would result in a final compound concentration of 50 µM (unless otherwise stated) and a final NH4+ concentration of 10 mM. Per treatment, 5 small pots were filled with 20 g soil. Next, the soil was treated first with the respective compound solution and then with the NH4Cl solution. Per tray, positive (50 µM DMP) and negative controls (DMSO) were included. […] Demineralized water was added to the soil every 2 to 3 days to a soil weight of 20 g. In the end, each sample of 20 g soil was dissolved in 100 ml 1 M KCI and shaken for 1 hour, followed by filtration through Whatmann® paper. The filtrate was used to measure pH, NH4+ and NO3— concentrations. The nitrification percentage was calculated as the ratio of the consumed ammonium in treated soil versus the consumed ammonium in non-treated soil; the nitrification inhibition percentage was calculated as ‘100% - the nitrification percentage’.

[1] = test system: Nitrososphaera viennensis; experiment: Nitrification inhibition assay on Nitrososphaera viennensis (nitrite, Griess); assay type: cell-based, Nitrososphaera viennensis EN76T; conditions: 0% = as strong as 100 µM PTIO, 100% = no inhibition
Method in brief: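 N. viennensis EN76T cultures in FWM (pH 7.5, NH4Cl-supplemented), 5× concentrated, treated with compounds at 2.5 µM final (0.25% DMSO) and incubated 24 h at 42 °C. Nitrite measured by Griess absorbance at 540 nm against a standard curve. Relative nitrification normalized between DMSO (no compound) and 100 µM PTIO controls.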

For `CC(C)c1cc(C(=O)N2CCSCC2)c2cnn(C(C)C)c2n1` [Example 2], the inhibition at 50 µM (agricultural soils; 72 h, Soil 2, 3 days) was 4%, the inhibition at 50 µM (agricultural soils; 72 h, Soil 3, 3 days) was 5% and the inhibition at 50 µM (agricultural soils; 168 h, Soil 1, 7 days) was 0%. For the same molecule, the inhibition at 50 µM (agricultural soils; 168 h, Soil 2, 7 days) was 15%, the inhibition at 100 µM (agricultural soils; 168 h, Soil 2, 7 days, 6 inhibitors alone and combined with Example 2) was 0% and the inhibition at 100 µM (agricultural soils; 168 h, Soil 2, 7 days, double and triple combinations) was 0%. The inhibition at 50 µM (agricultural soils; 168 h, Soil 3, 7 days) was 0%, the “N. viennensis - relative nitrification (%) at 0.5 µM” value ([1]; 0.5 µM compound) was 100% and the “N. viennensis - relative nitrification (%) at 5 µM” value ([1]; 5 µM compound) was 75%. For the same molecule, the “N. viennensis - relative nitrification (%) at 25 µM” value ([1]; 25 µM compound) was 0%.

From patent US20230357099A1, “PYRAZOLO [3,4-B] PYRIDINE-4-CARBOXAMIDE NITRIFICATION INHIBITOR” (EUROCHEM ANTWERPTEN, priority 2020, published 2023)
